Patent US20260217701A1, “SELECTIVE BET INHIBITORS AND USES THEREOF” (Tay Therapeutics Limited, priority 2022, published 2026)
Values joined by “and” are separate entries in the source; they are usually repeats but may differ in a detail not shown here. Equal entries are not always repeated.

Tested on: imiquimod-induced psoriasis
Assay: Imiquimod-induced psoriasis model
Format: in vivo, mice
Parameters: Spleen Weight / Spleen Weight Ratio: unit not given here
Details: for Mean scores of the presence of erythema on the skin of animals at the area of induction of psoriasis / Mean scores of the presence of induration on the skin of animals at the area of induction of psoriasis / Mean scores of the presence of peeling on the skin of animals at the area of induction of psoriasis: mean ± SEM
Procedure, shortened: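 Mice given topical imiquimod (5% cream) daily on depilated backs Days 1–14; Compound A in 5% DMSO/40% PEG-400/55% saline from Day 8, clobetasol topical as reference. Daily PASI (erythema, induration, peeling, each 0–4, summed) Days 8–15; spleen weight, open-field behaviour, serum IL-1B, IL-6, IL-17, TNF-α, IL-22, IL-23 at Day 15.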

[1] = IMI-psoriasis model, mice, 1 mg/kg, individual animals
[2] = IMI-psoriasis model, mice, 3 mg/kg, individual animals
[3] = IMI-psoriasis model, mice, 10 mg/kg, individual animals
[4] = IMI + 1 mg/kg, D8 (before start of treatment)
[5] = IMI + 3 mg/kg, D8 (before start of treatment)

**Q.** Which “Use Enrichment Mean D8-D15” value (IMI-psoriasis model, mean D8-D15, 10 mg/kg, per cage (two animals)) does the source give for Cn1cc(-c2ccccc2)c(-c2cn(C)c(=O)c3[nH]c(-c4cnn(C(F)(F)F)c4)cc23)cc1=O [Compound A, 6-methyl-4-(1-methyl-2-oxo-5-phenyl-1,2-dihydropyridin-4-yl)-2-(1-(trifluoromethyl)-1H-pyrazol-4-yl)-1,6-dihydro-7H-pyrrolo[2,3-c]pyridin-7-one] here?
**A.** 2.86 and 3.86 and 3.50 and 3.14

**Q.** And the “Spleen Weight” value [1]?
**A.** 219.42 and 202.00 and 212.50 and 233.20 and 220.14 and 227.26 and 202.76 and 213.15

**Q.** What about the “Spleen Weight Ratio” value [1] of the same compound?
**A.** 1394.03 and 1137.39 and 1273.22 and 1367.74 and 1289.63 and 1310.61 and 1176.78 and 1298.90

**Q.** And the “Spleen Weight” value [2]?
**A.** 199.90 and 205.09 and 178.46 and 185.94 and 214.46 and 180.80 and 187.63 and 151.76

**Q.** And the “Spleen Weight Ratio” value [2]?
**A.** 1084.06 and 1245.23 and 967.79 and 1175.35 and 1265.25 and 1069.19 and 1163.24 and 921.43

**Q.** And the “Spleen Weight” value [3]?
**A.** 156.01 and 178.03 and 139.03 and 157.80 and 191.54 and 195.58 and 151.42 and 172.86

**Q.** And the “Spleen Weight Ratio” value [3]?
**A.** 939.82 and 1083.57 and 757.66 and 813.82 and 1075.46 and 1071.08 and 902.92 and 1083.08

**Q.** What about the “cytokine levels (IL-17, IL-22, IL-1β, IL-6, TNF-α, IL-23) relative to vehicle” value (all tested doses) of the same compound?
**A.** marked reduction of all cytokines assayed

**Q.** And the Spleen Weight Ratio (day 15, 1, 3, 10 mg/kg)?
**A.** dose-dependent decrease

**Q.** And the “Mean scores of the presence of erythema on the skin of animals at the area of induction of psoriasis” value (“Mean scores of the presence of erythema” below) [4]?
**A.** 2.0 ± 0.0

**Q.** What about the “Mean scores of the presence of induration on the skin of animals at the area of induction of psoriasis” value [4] of the same compound?
**A.** 2.6 ± 0.2

**Q.** What about the “Mean scores of the presence of peeling on the skin of animals at the area of induction of psoriasis” value (“Mean scores of the presence of peeling” for short) [4] of the same compound?
**A.** 2.6 ± 0.2

**Q.** What about the “Mean scores of the presence of erythema” value (IMI + 1 mg/kg, D9) of the same compound?
**A.** 2.0 ± 0.3

**Q.** And the “Mean scores of the presence of induration on the skin of animals at the area of induction of psoriasis” value (IMI + 1 mg/kg, D9)?
**A.** 2.4 ± 0.2

**Q.** And the “Mean scores of the presence of peeling” value (IMI + 1 mg/kg, D9)?
**A.** 2.6 ± 0.2

**Q.** And the “Mean scores of the presence of erythema” value (IMI + 1 mg/kg, D10)?
**A.** 1.75 ± 0.2

**Q.** And the “Mean scores of the presence of induration on the skin of animals at the area of induction of psoriasis” value (IMI + 1 mg/kg, D10)?
**A.** 2.1 ± 0.2

**Q.** And the “Mean scores of the presence of peeling” value (IMI + 1 mg/kg, D10)?
**A.** 2.1 ± 0.1

**Q.** What about the “Mean scores of the presence of erythema” value (IMI + 1 mg/kg, D11) of the same compound?
**A.** 1.9 ± 0.1

**Q.** What about the “Mean scores of the presence of induration on the skin of animals at the area of induction of psoriasis” value (IMI + 1 mg/kg, D11) of the same compound?
**A.** 2.0 ± 0.3

**Q.** What about the “Mean scores of the presence of peeling” value (IMI + 1 mg/kg, D11) of the same compound?
**A.** 1.9 ± 0.2

**Q.** What about the “Mean scores of the presence of erythema” value (IMI + 1 mg/kg, D12) of the same compound?
**A.** 1.5 ± 0.2

**Q.** What about the “Mean scores of the presence of induration on the skin of animals at the area of induction of psoriasis” value (IMI + 1 mg/kg, D12) of the same compound?
**A.** 1.6 ± 0.2

**Q.** What about the “Mean scores of the presence of peeling” value (IMI + 1 mg/kg, D12) of the same compound?
**A.** 1.3 ± 0.2

**Q.** What about the “Mean scores of the presence of erythema” value (IMI + 1 mg/kg, D13) of the same compound?
**A.** 0.5 ± 0.2

**Q.** What about the “Mean scores of the presence of induration on the skin of animals at the area of induction of psoriasis” value (IMI + 1 mg/kg, D13) of the same compound?
**A.** 1.5 ± 0.2

**Q.** And the “Mean scores of the presence of peeling” value (IMI + 1 mg/kg, D13)?
**A.** 1.1 ± 0.1

**Q.** What about the “Mean scores of the presence of erythema” value (IMI + 1 mg/kg, D14) of the same compound?
**A.** 0.3 ± 0.2

**Q.** What about the “Mean scores of the presence of induration on the skin of animals at the area of induction of psoriasis” value (IMI + 1 mg/kg, D14) of the same compound?
**A.** 0.9 ± 0.2

**Q.** What about the “Mean scores of the presence of peeling” value (IMI + 1 mg/kg, D14) of the same compound?
**A.** 1.0 ± 0.0

**Q.** What about the “Mean scores of the presence of erythema” value (IMI + 1 mg/kg, D15) of the same compound?
**A.** 0.0 ± 0.0

**Q.** And the “Mean scores of the presence of induration on the skin of animals at the area of induction of psoriasis” value (IMI + 1 mg/kg, D15)?
**A.** 0.5 ± 0.2

**Q.** What about the “Mean scores of the presence of peeling” value (IMI + 1 mg/kg, D15) of the same compound?
**A.** 0.7 ± 0.2

**Q.** What about the “Mean scores of the presence of erythema” value [5] of the same compound?
**A.** 1.9 ± 0.1

**Q.** And the “Mean scores of the presence of induration on the skin of animals at the area of induction of psoriasis” value [5]?
**A.** 2.5 ± 0.2

**Q.** And the “Mean scores of the presence of peeling” value [5]?
**A.** 2.3 ± 0.2

**Q.** What about the “Mean scores of the presence of erythema” value (IMI + 3 mg/kg, D9) of the same compound?
**A.** 1.6 ± 0.2

**Q.** What about the “Mean scores of the presence of induration on the skin of animals at the area of induction of psoriasis” value (IMI + 3 mg/kg, D9) of the same compound?
**A.** 2.6 ± 0.2

**Q.** And the “Mean scores of the presence of peeling” value (IMI + 3 mg/kg, D9)?
**A.** 2.5 ± 0.2

**Q.** What about the “Mean scores of the presence of erythema” value (IMI + 3 mg/kg, D10) of the same compound?
**A.** 1.4 ± 0.2

**Q.** And the “Mean scores of the presence of induration on the skin of animals at the area of induction of psoriasis” value (IMI + 3 mg/kg, D10)?
**A.** 2.1 ± 0.1

**Q.** What about the “Mean scores of the presence of peeling” value (IMI + 3 mg/kg, D10) of the same compound?
**A.** 2.0 ± 0.2

**Q.** What about the “Mean scores of the presence of erythema” value (IMI + 3 mg/kg, D11) of the same compound?
**A.** 1.0 ± 0.0

**Q.** What about the “Mean scores of the presence of induration on the skin of animals at the area of induction of psoriasis” value (IMI + 3 mg/kg, D11) of the same compound?
**A.** 1.4 ± 0.2

**Q.** And the “Mean scores of the presence of peeling” value (IMI + 3 mg/kg, D11)?
**A.** 1.6 ± 0.2

**Q.** And the “Mean scores of the presence of erythema” value (IMI + 3 mg/kg, D12)?
**A.** 0.8 ± 0.2

**Q.** What about the “Mean scores of the presence of induration on the skin of animals at the area of induction of psoriasis” value (IMI + 3 mg/kg, D12) of the same compound?
**A.** 1.4 ± 0.2

**Q.** And the “Mean scores of the presence of peeling” value (IMI + 3 mg/kg, D12)?
**A.** 1.4 ± 0.2

**Q.** What about the “Mean scores of the presence of erythema” value (IMI + 3 mg/kg, D13) of the same compound?
**A.** 0.3 ± 0.2

**Q.** And the “Mean scores of the presence of induration on the skin of animals at the area of induction of psoriasis” value (IMI + 3 mg/kg, D13)?
**A.** 0.6 ± 0.2

**Q.** And the “Mean scores of the presence of peeling” value (IMI + 3 mg/kg, D13)?
**A.** 0.9 ± 0.1

**Q.** What about the “Mean scores of the presence of erythema” value (IMI + 3 mg/kg, D14) of the same compound?
**A.** 0.3 ± 0.2

**Q.** And the “Mean scores of the presence of induration on the skin of animals at the area of induction of psoriasis” value (IMI + 3 mg/kg, D14)?
**A.** 0.3 ± 0.2

**Q.** And the “Mean scores of the presence of peeling” value (IMI + 3 mg/kg, D14)?
**A.** 0.3 ± 0.2
